Experimental data from ChEMBL document CHEMBL1201862, “PubChem BioAssay data set” (2004).
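Five concentrations, 48 hours, 96-well plates. At the GI50, growth is halved.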 Calls of active or inactive are those of the source. No stated cut-off is given here; in the data, active = GI50 up to about 1.1 µM and inactive = higher.

Columns and labels:
Assay in all cases: growth of human tumour cells (NCI), 48 h
MDA-MB-231 = system: MDA-MB-231
HCT-116 = system: HCT-116
KM12 = system: KM12
OVCAR-3 = system: OVCAR-3
SNB-75 = system: SNB-75
DU-145 = system: DU-145
K562 = system: K562
MOLT-4 = system: MOLT-4
EKVX = system: EKVX
HOP-92 = system: HOP-92
SF-268 = system: SF-268
M14 = system: M14
IGROV-1 = system: IGROV-1
SF-295 = system: SF-295
MDA-MB-435 = system: MDA-MB-435
RXF 393 = system: RXF 393
NCI/ADR-RES = system: NCI/ADR-RES
PC-3 = system: PC-3
HOP-62 = system: HOP-62
U-251 = system: U-251
HT-29 = system: HT-29
SF-539 = system: SF-539
UO-31 = system: UO-31
NCI-H460 = system: NCI-H460
SN12C = system: SN12C
CAKI-1 = system: CAKI-1
SW-620 = system: SW-620
SK-MEL-5 = system: SK-MEL-5
786-0 = system: 786-0
SK-MEL-28 = system: SK-MEL-28
Malme-3M = system: Malme-3M
MCF7 = system: MCF7
ACHN = system: ACHN
UACC-257 = system: UACC-257
OVCAR-8 = system: OVCAR-8
MDA-N = system: MDA-N
A498 = system: A498
SK-MEL-2 = system: SK-MEL-2
CCRF-CEM = system: CCRF-CEM
NCI-H226 = system: NCI-H226
HCT-15 = system: HCT-15
UACC-62 = system: UACC-62
A549 = system: A549
NCI-H23 = system: NCI-H23
LOX IMVI = system: LOX IMVI
T47D = system: T47D
COLO 205 = system: COLO 205
Hs-578T = system: Hs-578T
NCI-H522 = system: NCI-H522
OVCAR-4 = system: OVCAR-4
TK-10 = system: TK-10
OVCAR-5 = system: OVCAR-5
BT-549 = system: BT-549
SNB-19 = system: SNB-19
SK-OV-3 = system: SK-OV-3
HCC 2998 = system: HCC 2998
RPMI-8226 = system: RPMI-8226

COC(=O)[C@@H]1[C@@H](c2cccc(Cl)c2)[C@H](C(=O)OC)C2(C[C@@]1(C)O)NCCS2 (stereo partly specified)
GI50 (MDA-MB-231): 64.7 µM (inactive)
GI50 (HCT-116): 42.5 µM (inactive)
GI50 (KM12): 48.8 µM (inactive)
GI50 (OVCAR-3): 31.3 µM (inactive)
GI50 (SNB-75): 35.5 µM (inactive)
GI50 (DU-145): 32.7 µM (inactive)
GI50 (K562): 25.6 µM (inactive)
GI50 (MOLT-4): 570 nM (active)
GI50 (EKVX): > 100 µM (inactive)
GI50 (HOP-92): 73.6 µM (inactive)
GI50 (SF-268): > 100 µM (inactive)
GI50 (M14): 39.1 µM (inactive)
GI50 (IGROV-1): 62.5 µM (inactive)
GI50 (SF-295): > 100 µM (inactive)
GI50 (MDA-MB-435): 52.5 µM (inactive)
GI50 (RXF 393): 49.4 µM (inactive)
GI50 (NCI/ADR-RES): 91.6 µM (inactive)
GI50 (PC-3): 31.4 µM (inactive)
GI50 (HOP-62): 92.3 µM (inactive)
GI50 (U-251): > 100 µM (inactive)
GI50 (HT-29): 44.2 µM (inactive)
GI50 (SF-539): > 100 µM (inactive)
GI50 (UO-31): > 100 µM (inactive)
GI50 (NCI-H460): 48.4 µM (inactive)
GI50 (SN12C): 47.9 µM (inactive)
GI50 (CAKI-1): > 100 µM (inactive)
GI50 (SW-620): 36.6 µM (inactive)
GI50 (SK-MEL-5): 44.9 µM (inactive)
GI50 (786-0): 74.6 µM (inactive)
GI50 (SK-MEL-28): 77.4 µM (inactive)
GI50 (Malme-3M): > 100 µM (inactive)
GI50 (MCF7): 56.1 µM (inactive)
GI50 (ACHN): > 100 µM (inactive)
GI50 (UACC-257): 87.7 µM (inactive)
GI50 (OVCAR-8): 86.5 µM (inactive)
GI50 (MDA-N): 86.1 µM (inactive)
GI50 (A498): > 100 µM (inactive)
GI50 (SK-MEL-2): 16.6 µM (inactive)
GI50 (CCRF-CEM): 684 nM (active)
GI50 (NCI-H226): > 100 µM (inactive)
GI50 (HCT-15): 82.6 µM
GI50 (UACC-62): 73.5 µM (inactive)
GI50 (A549): 55 µM (inactive)
GI50 (NCI-H23): 22.3 µM (inactive)
GI50 (LOX IMVI): 38.2 µM (inactive)
GI50 (T47D): 29.6 µM (inactive)
GI50 (COLO 205): 81.1 µM (inactive)
GI50 (Hs-578T): > 100 µM (inactive)
GI50 (NCI-H522): 24.2 µM (inactive)
GI50 (OVCAR-4): 46.7 µM (inactive)
GI50 (TK-10): > 100 µM (inactive)
GI50 (OVCAR-5): > 100 µM (inactive)
GI50 (BT-549): > 100 µM (inactive)
GI50 (SNB-19): 83.9 µM (inactive)
GI50 (SK-OV-3): > 100 µM (inactive)

C1CSCCSCCSCCSC1
GI50 (MDA-MB-231): > 100 µM (inactive)
GI50 (HCT-116): > 100 µM (inactive)
GI50 (KM12): > 100 µM (inactive)
GI50 (OVCAR-3): > 100 µM (inactive)
GI50 (SNB-75): > 100 µM (inactive)
GI50 (DU-145): > 100 µM (inactive)
GI50 (HCC 2998): > 100 µM (inactive)
GI50 (MOLT-4): > 100000 nM (inactive)
GI50 (EKVX): > 100 µM (inactive)
GI50 (HOP-92): > 100 µM (inactive)
GI50 (SF-268): > 100 µM (inactive)
GI50 (M14): > 100 µM (inactive)
GI50 (IGROV-1): > 100 µM (inactive)
GI50 (SF-295): > 100 µM (inactive)
GI50 (MDA-MB-435): > 100 µM (inactive)
GI50 (RXF 393): > 100 µM (inactive)
GI50 (NCI/ADR-RES): > 100 µM (inactive)
GI50 (PC-3): > 100 µM (inactive)
GI50 (HOP-62): > 100 µM (inactive)
GI50 (U-251): > 100 µM (inactive)
GI50 (HT-29): > 100 µM (inactive)
GI50 (SF-539): > 100 µM (inactive)
GI50 (UO-31): > 100 µM (inactive)
GI50 (NCI-H460): > 100 µM (inactive)
GI50 (SN12C): > 100 µM (inactive)
GI50 (CAKI-1): > 100 µM (inactive)
GI50 (SW-620): > 100 µM (inactive)
GI50 (SK-MEL-5): > 100 µM (inactive)
GI50 (SK-MEL-28): > 100 µM (inactive)
GI50 (MCF7): > 100 µM (inactive)
GI50 (ACHN): > 100 µM (inactive)
GI50 (UACC-257): > 100 µM (inactive)
GI50 (OVCAR-8): > 100 µM (inactive)
GI50 (MDA-N): > 100 µM (inactive)
GI50 (A498): > 100 µM (inactive)
GI50 (SK-MEL-2): > 100 µM (inactive)
GI50 (NCI-H226): > 100 µM (inactive)
GI50 (HCT-15): > 100 µM
GI50 (UACC-62): > 100 µM (inactive)
GI50 (A549): > 100 µM (inactive)
GI50 (NCI-H23): > 100 µM (inactive)
GI50 (LOX IMVI): > 100 µM (inactive)
GI50 (T47D): > 100 µM (inactive)
GI50 (COLO 205): > 100 µM (inactive)
GI50 (Hs-578T): > 100 µM (inactive)
GI50 (NCI-H522): > 100 µM (inactive)
GI50 (OVCAR-4): > 100 µM (inactive)
GI50 (TK-10): > 100 µM (inactive)
GI50 (OVCAR-5): > 100 µM (inactive)
GI50 (BT-549): > 100 µM (inactive)
GI50 (RPMI-8226): > 100 µM (inactive)
GI50 (SNB-19): > 100 µM (inactive)
GI50 (SK-OV-3): > 100 µM (inactive)

CCOC(=O)CCC(NC(=O)c1ccc(N2CCN(c3c(C)nc(N)nc3N)CC2)cc1)C(=O)OCC (stereo unspecified)
GI50 (MDA-MB-231): > 100 µM (inactive)
GI50 (HCT-116): 0.0527 µM (active)
GI50 (KM12): 1.43 µM (inactive)
GI50 (OVCAR-3): > 21.2 µM (inactive)
GI50 (SNB-75): > 37.1 µM (inactive)
GI50 (DU-145): > 100 µM (inactive)
GI50 (HCC 2998): 10.6 µM (inactive)
GI50 (K562): < 0.01 µM (active)
GI50 (MOLT-4): 186 nM (active)
GI50 (EKVX): > 78.2 µM (inactive)
GI50 (HOP-92): 48.6 µM (inactive)
GI50 (SF-268): 0.757 µM (active)
GI50 (M14): 1.32 µM (inactive)
GI50 (IGROV-1): 0.113 µM (active)
GI50 (MDA-MB-435): 0.251 µM (active)
GI50 (NCI/ADR-RES): 7.43 µM (inactive)
GI50 (PC-3): 0.0398 µM (active)
GI50 (U-251): 0.0845 µM (active)
GI50 (HT-29): 3.15 µM (inactive)
GI50 (SF-539): 16.2 µM (inactive)
GI50 (UO-31): > 100 µM (inactive)
GI50 (NCI-H460): 6.53 µM (inactive)
GI50 (SN12C): > 22.5 µM (inactive)
GI50 (CAKI-1): 2.52 µM (inactive)
GI50 (SK-MEL-5): 0.0923 µM (active)
GI50 (786-0): 0.0929 µM (active)
GI50 (SK-MEL-28): > 31.6 µM (inactive)
GI50 (Malme-3M): > 100 µM (inactive)
GI50 (MCF7): 0.685 µM (active)
GI50 (ACHN): 0.122 µM (active)
GI50 (UACC-257): 15.6 µM (inactive)
GI50 (OVCAR-8): 0.452 µM (active)
GI50 (MDA-N): 12.9 µM (inactive)
GI50 (A498): 65.2 µM (inactive)
GI50 (SK-MEL-2): > 100 µM (inactive)
GI50 (CCRF-CEM): 109 nM (active)
GI50 (NCI-H226): 0.902 µM (active)
GI50 (HCT-15): 3.36 µM
GI50 (UACC-62): 0.165 µM (active)
GI50 (A549): 0.213 µM (active)
GI50 (NCI-H23): 0.169 µM (active)
GI50 (LOX IMVI): 0.513 µM (active)
GI50 (T47D): > 88.9 µM (inactive)
GI50 (COLO 205): > 64.1 µM (inactive)
GI50 (Hs-578T): > 100 µM (inactive)
GI50 (NCI-H522): 11 µM (inactive)
GI50 (OVCAR-4): > 100 µM (inactive)
GI50 (TK-10): > 100 µM (inactive)
GI50 (OVCAR-5): > 100 µM (inactive)
GI50 (BT-549): > 100 µM (inactive)
GI50 (RPMI-8226): 1.76 µM (inactive)
GI50 (SNB-19): 0.514 µM (active)
GI50 (SK-OV-3): > 100 µM (inactive)
